# Experimental data published in US11160794B2, “Methods for treating congenital disorders of glycosylation” (Maggie's Pearl, LLC, priority 2018, dated 2021).
# Where a name gives a salt, the structure may show the parent alone.
# System: SEC53 variant (pmm2 mutant) yeast
# Assay: Yeast growth rescue of SEC53 variant strains (validation of drug screen hits)
# Assay type: cell-based
# Details: haploid and heterozygous diploid cells; dose response
# Experimental: All strains used herein are in S288c background. Strains were grown in Synthetic Complete (“SC”) or SC drop out media (Sunrise)+2% dextrose at 30° C. unless otherwise noted. Standard genetic procedures of transformation and tetrad analysis were followed to construct strains. SEC53 rescue plasmid (pPL1) was generated by cloning the SEC53 promoter, open reading frame, and terminator sequences into the episomal pRS316 containing the URA3 selectable marker. SEC53 variants were generated by cloning the relevant promoter, GFP or SEC53 gene, and CYC1 terminator sequences into an integrating plasmid containing the LEU2 selectable marker and integrated at the SwaI restriction site into the HO locus. For PMM2 variants, the SEC53 ORF was replaced with a codon-optimized PMM2. Plasmids were generated by Next Interactions or GenScript. Strains were generated by Next Interactions or well-known techniques.
# Cells from plates were resuspended in SC media to OD600=1.0, then serial diluted into 50 μL SC+FOA media in 384-well plates at 10^−1, 10^−2, and 10^−3. Plates were incubated at 30° C. and absorbance reading at […] were measured by a plate reader (Molecular Devices SpectraMax M3) at the indicated time points. Plates were vortexed briefly to resuspend cells prior to plate readings. 5-floroortic acid was purchased from US Biological and used at a concentration of 1 mg/L.
# 125 nL of compounds or DMSO were dispensed into 384-well plates using the Echo acoustic dispenser (LabCyte) to achieve a final concentration of 25 μM. 50 μL of 10^−2 dilution of an OD600=1.0 or 0.5 yeast cell suspensions were dispensed into the 384-well plates containing compounds or DMSO with a MultiFlo automated dispenser (Biotek). Plates were covered and incubated at 30° C. for 16-21 hours until OD600 reaches ˜0.8. Plates were vortexed briefly to resuspend cells prior to reading.
# MicroSource Spectrum compounds were reordered from MicroSource Discovery Systems and resuspended in DMSO. 5-125 nL compounds or DMSO were dispensed into 384-well plates and 50 μL of yeast cell suspensions or media were dispensed by multichannel pipettes to achieve the desired concentration. Plates were covered and incubated at 30° C. for 16-23 hours until OD600 reaches ˜0.8. Plates were vortexed briefly to resuspend cells prior to plate readings.
# pACT1-F126L, pSEC53-V238M, and pSEC53-F126L haploids and pACT1-F126L/pACT1-R148H, pSEC53-V238M/pSEC53-R148H, and pSEC53-F126L/pSEC53-R148H heterozygous diploids were advanced to a high-throughput drug screen. Screening was done in a 2,560 compound MicroSource Spectrum library collection consisting of FDA approved drugs, bioactive tool compounds, and natural products. Each strain was screened in duplicate and in 384-well plates, with each plate containing 32 wells of the negative control (no drugs) and 24 wells of the positive controls (wild type cells). […] Additionally, there is good correlation between replicates (correlation >0.4 for all panels). With a Z-score cutoff of 2.0, we initially identified six compounds that may be promising and their ability to rescue growth is conserved between the haploid and diploid strains.
# These initial hits were further studied for validation. […] At the maximum dose tested, alpha-cyano-4-hydroxycinnamic acid (Compound 1) rescues the F126L allele by 17.7% in haploid and 24.5% in diploid cells.
row,SMILES,rescue of growth of SEC53 alleles
1,"Cc1ccc(C(=O)Nc2ccc(S(=O)(=O)O)c3cc(S(=O)(=O)O)cc(S(=O)(=O)O)c23)cc1NC(=O)c1cccc(NC(=O)Nc2cccc(C(=O)Nc3cc(C(=O)Nc4ccc(S(=O)(=O)O)c5cc(S(=O)(=O)O)cc(S(=O)(=O)O)c45)ccc3C)c2)c1 [Compound 3, 8-[[4-methyl-3-[[3-[[3-[[2-methyl-5-[(4,6,8-trisulfonaphthalen-1-yl)carbamoyl]phenyl]carbamoyl]phenyl]carbamoylamino]benzoyl]amino]benzoyl]amino]naphth alene-1,3,5-trisulfonic acid]",consistent and dose-dependent rescues
2,"NCCS [cysteamine hydrochloride, reference compound]",does not rescue at any dose

# System: pmm-2 F125L/F125L worms
# Assay: Bortezomib-induced growth suppression rescue screen in pmm-2 F125L worms
# Assay type: in vivo, nematode (worms)
# Details: 25 μM drug, 11 μM Bzb, 5 days; one row per replicate
# Text: A F119L point mutation strain, orthologous F125L in worms was created.
# Because an underlying defect in glycosylation may be manifested when subjected to external chemical stressors, Pmm-2 F119L homozygous animals were subjected to Tunicamycin and Bortezomib drug exposures. Tunicamycin is an inhibitor of N-linked glycosylation and Bortezomib (Bzb) is an irreversible inhibitor of the proteasome. It was contemplated that either or both drugs would affect the Pmm-2 mutants differently compared to wild type (“WT”).
# Thus, Bzb-induced growth suppression was used as a means to identify compounds that might rescue the global effects of exacerbated glycosylation deficiency. Using this approach, animals were age-synchronized to obtain L1 larvae. Fifteen L1 larvae were dispensed into wells of a 384-well plate containing 25 μM of drugs (obtained from the MicroSource Spectrum library purchased from MicroSource Discovery Systems) and 11 μM Bzb. Bacterial media at fixed optical density was added to wells to enable worms to grow for a 5 day period. Animals were dispensed using Biosorter, a large particle flow cytometer by Union Biometrica, Mass. At the end of the 5 day period, animals were treated with 15 μls of 8 mM sodium azide (for 55 μls of total assay volume). After 20 minutes, immobilized animals were imaged using a plate imager under transmitted light. A custom image processing script was used to extract the areas occupied by worms/well over a 5 day period. Each plate has positive controls (no Bzb) and negative controls (11 μM Bzb) that was used to determine the z score of test wells per plate. After outlier correction for each plate in each replicate, data from all three replicates was compared. Wells per plate with positive z scores greater than 2 were identified as “hits.” If hits reproduced across all three replicates were then compared. […] At least 13 of the 20 compounds belong to the category of antioxidants; still others fall in the category of catecholamines
row,SMILES,Status
1,"O=c1cc(-c2ccccc2)oc2cc(O)c(O)c(O)c12 [BAICALEIN, baicalein]",HIT (Wells per plate with positive z scores greater than 2 were identified as “hits.”)
2,"N[C@@H](Cc1ccc(O)c(O)c1)C(=O)O [LEVODOPA, levodopa, reference compound]",HIT (Wells per plate with positive z scores greater than 2 were identified as “hits.”)
3,"COc1cccc(O)c1O [3-METHOXYCATECHOL, 3-methoxycatechol]",HIT (Wells per plate with positive z scores greater than 2 were identified as “hits.”)
4,"COc1ccc(C(=O)c2ccc(O)cc2)c(O)c1O [2,3,4′-TRIHYDROXY-4-METHOXYBENZOPHENONE, 2,3,4′-trihydroxy-4-methoxybenzophenone]",HIT (Wells per plate with positive z scores greater than 2 were identified as “hits.”)
5,"O=c1c(O)c(-c2ccc(O)c(O)c2)oc2c(O)c(O)cc(O)c12 [GOSSYPETIN, gossypetin]",HIT (Wells per plate with positive z scores greater than 2 were identified as “hits.”)
6,"CCC(N)C(O)c1ccc(O)c(O)c1 (stereo not shown) [ETHYLNOREPINEPHRINE HYDROCHLORIDE, ethylnorepinephrine hydrochoride, reference compound]",HIT (Wells per plate with positive z scores greater than 2 were identified as “hits.”)
7,"O=C(O[C@@H]1Cc2c(O)cc(O)cc2O[C@@H]1c1cc(O)c(=O)c2c(O)c(O)cc([C@H]3Oc4cc(O)cc(O)c4C[C@H]3O)c2c1)c1cc(O)c(O)c(O)c1 [THEAFLAVIN MONOGALLATES, theaflavin monogallate]",HIT (Wells per plate with positive z scores greater than 2 were identified as “hits.”)
8,"CC1=NN(c2ccccc2)C(=O)C1 [EDARAVONE, edaravone, reference compound]",HIT (Wells per plate with positive z scores greater than 2 were identified as “hits.”)
9,"COc1cc(O)c2c(=O)c(O)c(-c3ccc(O)c(O)c3)oc2c1 [RHAMNETIN, rhamnetin]",HIT (Wells per plate with positive z scores greater than 2 were identified as “hits.”)
10,"Nc1ccc(O)c(N)c1 [AMIDOL DIHYDROCHLORIDE, amidol dihydrochloride]",HIT (Wells per plate with positive z scores greater than 2 were identified as “hits.”)
11,"O=c1oc2c(O)c(O)cc3c(=O)oc4c(O)c(O)cc1c4c23 [ELLAGIC ACID, ellagic acid]",HIT (Wells per plate with positive z scores greater than 2 were identified as “hits.”)
12,"O=C(O)c1cc(O)c(=O)c2c(O)c(O)c(O)cc2c1 [PURPUROGALLIN-4-CARBOXYLIC ACID, purpurogallin-4-carboxylic acid]",HIT (Wells per plate with positive z scores greater than 2 were identified as “hits.”)
13,"O=C(O[C@@H]1Cc2c(O)cc(O)cc2O[C@@H]1c1ccc(O)c(O)c1)c1cc(O)c(O)c(O)c1 [EPICATECHIN MONOGALLATE, epicatechin monogallate]",HIT (Wells per plate with positive z scores greater than 2 were identified as “hits.”)
14,"CCOc1cccc(C(=O)c2ccc(O)c(O)c2O)c1 [3,4-didesmethyl-5-deshydroxy-3′-ethoxyscleroin]",HIT (Wells per plate with positive z scores greater than 2 were identified as “hits.”)
15,"COc1cc(OC)c2c(=O)c(O)c(-c3ccc(OC)c(OC)c3)oc2c1 [QUERCETIN 5,7,3,4′-TETRAMETHYL ETHER, quercetin 5,7,3′,4′-tetramethyl ether]",HIT (Wells per plate with positive z scores greater than 2 were identified as “hits.”)
16,"CC(CCc1ccc(O)cc1)NCCc1ccc(O)c(O)c1 (stereo not shown) [DOBUTAMINE HYDROCHLORIDE, dobutamine hydrochloride, reference compound]",HIT (Wells per plate with positive z scores greater than 2 were identified as “hits.”)
17,"O=c1c(O)c(-c2ccc(O)c(O)c2)oc2cc(O)ccc12 [FISETIN, fisetin]",HIT (Wells per plate with positive z scores greater than 2 were identified as “hits.”)
18,"COc1ccc(-c2coc3cc(O)ccc3c2=O)c(O)c1O [KOPARIN, koparin]",HIT (Wells per plate with positive z scores greater than 2 were identified as “hits.”)
19,"O=c1cc(-c2cc(O)c(O)c(O)c2)oc2cc(O)cc(O)c12 [HIERACIN, hieracin]",HIT (Wells per plate with positive z scores greater than 2 were identified as “hits.”)
20,O=c1c(O)cccc2ccc(O)c(O)c12,HIT (Wells per plate with positive z scores greater than 2 were identified as “hits.”)
